# Values of other authors in patent US20020002154A1, “METHOD AND COMPOSITION FOR TREATMENT OF INFLAMMATORY CONDITIONS” (priority 1998, published 2002).
# Tested on: acute phase of Crohn's Disease (CD)
compound,measurement,value
CCCC1O[C@@H]2C[C@H]3[C@@H]4CCC5=CC(=O)C=C[C@]5(C)[C@H]4[C@@H](O)C[C@]3(C)[C@]2(C(=O)CO)O1 (stereo partly shown) [budesonide],side-effects compared to prednisone,fewer side-effects
